Results taken from patent US20020111274A1, “1-alkyl-3-[1-(substituted phenyl) benzotriazol-6-yl] uracils” (BASF Aktiengesellschaft, priority 2000, published 2002).

How the values were obtained:
Design in all cases: scale not given here
ABUTH Velvetleaf [1] = assay: Postemergence herbicidal evaluation, ABUTH; assay type: in vivo, Abutilon theophrasti, Medic.; conditions: postemergence spray, rated about two-three weeks after treatment
In short: (§1)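 Two-week-old seedlings sprayed postemergence with compound in 80/20 acetone/water plus 1.0% methylated seed oil, at about 0.006–0.400 kg/ha, through a nozzle at 40 psi. Plants kept under greenhouse conditions and visually rated about two–three weeks after treatment; ratings from repeat tests averaged.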

AMBEL Ragweed, Common [2] = assay: Postemergence herbicidal evaluation, AMBEL; assay type: in vivo, Ambrosia artemisifolia, L.; conditions: postemergence spray, rated about two-three weeks after treatment
In short: as §1

CASOB Sicklepod [3] = assay: Postemergence herbicidal evaluation, CASOB; assay type: in vivo, Cassia obtusifolia, L.; conditions: postemergence spray, rated about two-three weeks after treatment
In short: as §1

[4] = tested on: CHEAL Lambsquarters, Common; assay: Postemergence herbicidal evaluation, CHEAL; assay type: in vivo, Chenopodium album, L.; conditions: postemergence spray, rated about two-three weeks after treatment
In short: as §1

ECHOG Barnyardgrass [5] = assay: Postemergence herbicidal evaluation, ECHOG; assay type: in vivo, Echinochloa crus-galli, (L.) Beau; conditions: postemergence spray, rated about two-three weeks after treatment
In short: as §1

GALAP Galium [6] = assay: Postemergence herbicidal evaluation, GALAP; assay type: in vivo, Galium aparine; conditions: postemergence spray, rated about two-three weeks after treatment
In short: as §1

[7] = tested on: IPOHE Morningglory, Ivyleaf; assay: Postemergence herbicidal evaluation, IPOHE; assay type: in vivo, Ipomoea hederacea, (L.) Jacq.; conditions: postemergence spray, rated about two-three weeks after treatment
In short: as §1

SETVI Foxtail, Green [8] = assay: Postemergence herbicidal evaluation, SETVI; assay type: in vivo, Setaria viridis, (L.) Beau; conditions: postemergence spray, rated about two-three weeks after treatment
In short: as §1

GLXMAW Soybean, Williams [9] = assay: Postemergence herbicidal evaluation, GLXMAW; assay type: in vivo, Glycine max, (L.) Merr. cv Williams; conditions: postemergence spray, rated about two-three weeks after treatment
In short: as §1

[10] = tested on: TRZAWR Wheat, Winter, cv Riband; assay: Postemergence herbicidal evaluation, TRZAWR; assay type: in vivo, Triticum aestivum; conditions: postemergence spray, rated about two-three weeks after treatment
In short: as §1

ORYSAT Rice, Tebonnet [11] = assay: Postemergence herbicidal evaluation, ORYSAT; assay type: in vivo, Oryza sativa, (L.); conditions: postemergence spray, rated about two-three weeks after treatment
In short: as §1

ZEAMX Corn, Field [12] = assay: Postemergence herbicidal evaluation, ZEAMX; assay type: in vivo, Zea mays, L. (Sammel-Bezeichnung); conditions: postemergence spray, rated about two-three weeks after treatment
In short: as §1

ABUTH Velvetleaf [13] = assay: Preemergence herbicidal evaluation, ABUTH; assay type: in vivo, Abutilon theophrasti, Medic.; conditions: preemergence
In short: (§2)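 Seeds mixed with potting soil in cups, then sprayed preemergence with aqueous acetone test solution at about 0.013 to 0.800 kg per hectare equivalent. Cups kept under standard greenhouse care; plants rated on a visual scale four to five weeks after treatment.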

AMBEL Ragweed, Common [14] = assay: Preemergence herbicidal evaluation, AMBEL; assay type: in vivo, Ambrosia artemisifolia, L.; conditions: preemergence
In short: as §2

CASOB Sicklepod [15] = assay: Preemergence herbicidal evaluation, CASOB; assay type: in vivo, Cassia obtusifolia, L.; conditions: preemergence
In short: as §2

[16] = tested on: CHEAL Lambsquarters, Common; assay: Preemergence herbicidal evaluation, CHEAL; assay type: in vivo, Chenopodium album, L.; conditions: preemergence
In short: as §2

ECHOG Barnyardgrass [17] = assay: Preemergence herbicidal evaluation, ECHOG; assay type: in vivo, Echinochloa crus-galli, (L.) Beau; conditions: preemergence
In short: as §2

GALAP Galium [18] = assay: Preemergence herbicidal evaluation, GALAP; assay type: in vivo, Galium aparine; conditions: preemergence
In short: as §2

[19] = tested on: IPOHE Morningglory, Ivyleaf; assay: Preemergence herbicidal evaluation, IPOHE; assay type: in vivo, Ipomoea hederacea, (L.) Jacq.; conditions: preemergence
In short: as §2

SETVI Foxtail, Green [20] = assay: Preemergence herbicidal evaluation, SETVI; assay type: in vivo, Setaria viridis, (L.) Beau; conditions: preemergence
In short: as §2

GLXMAW Soybean, Williams [21] = assay: Preemergence herbicidal evaluation, GLXMAW; assay type: in vivo, Glycine max, (L.) Merr. cv Williams; conditions: preemergence
In short: as §2

[22] = tested on: TRZAWR Wheat, Winter, cv Riband; assay: Preemergence herbicidal evaluation, TRZAWR; assay type: in vivo, Triticum aestivum; conditions: preemergence
In short: as §2

ORYSAT Rice, Tebonnet [23] = assay: Preemergence herbicidal evaluation, ORYSAT; assay type: in vivo, Oryza sativa, (L.); conditions: preemergence
In short: as §2

ZEAMX Corn, Field [24] = assay: Preemergence herbicidal evaluation, ZEAMX; assay type: in vivo, Zea mays, L. (Sammel-Bezeichnung); conditions: preemergence
In short: as §2

COC(=O)C(C)Oc1ccc(C)cc1-n1nnc2cc(F)c(-n3c(=O)cc(C(F)(F)F)n(C)c3=O)cc21 (centres unmarked) [Example 41]
Postemergence herbicidal rating ABUTH (ABUTH Velvetleaf [1]; 0.008 kg/ha): 9.0 | Postemergence herbicidal rating ABUTH (ABUTH Velvetleaf [1]; 0.016 kg/ha): 9.0 | Postemergence herbicidal rating ABUTH (ABUTH Velvetleaf [1]; 0.032 kg/ha): 9.0 | Postemergence herbicidal rating ABUTH (ABUTH Velvetleaf [1]; 0.062 kg/ha): 9.0 | Postemergence herbicidal rating AMBEL (AMBEL Ragweed, Common [2]; 0.008 kg/ha): 7.0 | Postemergence herbicidal rating AMBEL (AMBEL Ragweed, Common [2]; 0.016 kg/ha): 9.0 | Postemergence herbicidal rating AMBEL (AMBEL Ragweed, Common [2]; 0.032 kg/ha): 9.0 | Postemergence herbicidal rating AMBEL (AMBEL Ragweed, Common [2]; 0.062 kg/ha): 9.0 | Postemergence herbicidal rating CASOB (CASOB Sicklepod [3]; 0.008 kg/ha): 1.0 | Postemergence herbicidal rating CASOB (CASOB Sicklepod [3]; 0.016 kg/ha): 3.0 | Postemergence herbicidal rating CASOB (CASOB Sicklepod [3]; 0.032 kg/ha): 4.0 | Postemergence herbicidal rating CASOB (CASOB Sicklepod [3]; 0.062 kg/ha): 9.0 | Postemergence herbicidal rating CHEAL ([4]; 0.008 kg/ha): 2.0 | Postemergence herbicidal rating CHEAL ([4]; 0.016 kg/ha): 2.0 | Postemergence herbicidal rating CHEAL ([4]; 0.032 kg/ha): 4.0 | Postemergence herbicidal rating CHEAL ([4]; 0.062 kg/ha): 5.0 | Postemergence herbicidal rating ECHCG (ECHOG Barnyardgrass [5]; 0.008 kg/ha): 6. | Postemergence herbicidal rating ECHCG (ECHOG Barnyardgrass [5]; 0.016 kg/ha): 9.0 | Postemergence herbicidal rating ECHCG (ECHOG Barnyardgrass [5]; 0.032 kg/ha): 9.0 | Postemergence herbicidal rating ECHCG (ECHOG Barnyardgrass [5]; 0.062 kg/ha): 9.0 | Postemergence herbicidal rating GALAP (GALAP Galium [6]; 0.008 kg/ha): 0.0 | Postemergence herbicidal rating GALAP (GALAP Galium [6]; 0.016 kg/ha): 1.0 | Postemergence herbicidal rating GALAP (GALAP Galium [6]; 0.032 kg/ha): 3.0 | Postemergence herbicidal rating GALAP (GALAP Galium [6]; 0.062 kg/ha): 3.0 | Postemergence herbicidal rating IPOHE ([7]; 0.008 kg/ha): 9.0 | Postemergence herbicidal rating IPOHE ([7]; 0.016 kg/ha): 9.0 | Postemergence herbicidal rating IPOHE ([7]; 0.032 kg/ha): 9.0 | Postemergence herbicidal rating IPOHE ([7]; 0.062 kg/ha): 9.0 | Postemergence herbicidal rating SETVI (SETVI Foxtail, Green [8]; 0.008 kg/ha): 7.0 | Postemergence herbicidal rating SETVI (SETVI Foxtail, Green [8]; 0.016 kg/ha): 9.0 | Postemergence herbicidal rating SETVI (SETVI Foxtail, Green [8]; 0.032 kg/ha): 9.0 | Postemergence herbicidal rating SETVI (SETVI Foxtail, Green [8]; 0.062 kg/ha): 9.0 | Postemergence herbicidal rating GLXMAW (GLXMAW Soybean, Williams [9]; 0.008 kg/ha): 5.5 | Postemergence herbicidal rating GLXMAW (GLXMAW Soybean, Williams [9]; 0.016 kg/ha): 7.5 | Postemergence herbicidal rating GLXMAW (GLXMAW Soybean, Williams [9]; 0.032 kg/ha): 8.0 | Postemergence herbicidal rating GLXMAW (GLXMAW Soybean, Williams [9]; 0.062 kg/ha): 8.0 | Postemergence herbicidal rating TRZAWR ([10]; 0.008 kg/ha): 6.0 | Postemergence herbicidal rating TRZAWR ([10]; 0.016 kg/ha): 7.0 | Postemergence herbicidal rating TRZAWR ([10]; 0.032 kg/ha): 8.0 | Postemergence herbicidal rating TRZAWR ([10]; 0.062 kg/ha): 8.0 | Postemergence herbicidal rating ORYSAT (ORYSAT Rice, Tebonnet [11]; 0.008 kg/ha): 1.5 | Postemergence herbicidal rating ORYSAT (ORYSAT Rice, Tebonnet [11]; 0.016 kg/ha): 2.5 | Postemergence herbicidal rating ORYSAT (ORYSAT Rice, Tebonnet [11]; 0.032 kg/ha): 7.0 | Postemergence herbicidal rating ORYSAT (ORYSAT Rice, Tebonnet [11]; 0.062 kg/ha): 8.0 | Postemergence herbicidal rating ZEAMX (ZEAMX Corn, Field [12]; 0.008 kg/ha): 6.5 | Postemergence herbicidal rating ZEAMX (ZEAMX Corn, Field [12]; 0.016 kg/ha): 8.0 | Postemergence herbicidal rating ZEAMX (ZEAMX Corn, Field [12]; 0.032 kg/ha): 8.0 | Postemergence herbicidal rating ZEAMX (ZEAMX Corn, Field [12]; 0.062 kg/ha): 9.0 | ABUTH herbicidal rating (ABUTH Velvetleaf [13]; rate 0.016 kg/ha): 4.0 | ABUTH herbicidal rating (ABUTH Velvetleaf [13]; rate 0.032 kg/ha): 4.0 | ABUTH herbicidal rating (ABUTH Velvetleaf [13]; rate 0.062 kg/ha): 9.0 | ABUTH herbicidal rating (ABUTH Velvetleaf [13]; rate 0.125 kg/ha): 9.0 | AMBEL herbicidal rating (AMBEL Ragweed, Common [14]; rate 0.016 kg/ha): 0.0 | AMBEL herbicidal rating (AMBEL Ragweed, Common [14]; rate 0.032 kg/ha): 0.0 | AMBEL herbicidal rating (AMBEL Ragweed, Common [14]; rate 0.062 kg/ha): 0.0 | AMBEL herbicidal rating (AMBEL Ragweed, Common [14]; rate 0.125 kg/ha): 7.0 | CASOB herbicidal rating (CASOB Sicklepod [15]; rate 0.016 kg/ha): 0.0 | CASOB herbicidal rating (CASOB Sicklepod [15]; rate 0.032 kg/ha): 0.0 | CASOB herbicidal rating (CASOB Sicklepod [15]; rate 0.062 kg/ha): 0.0 | CHEAL herbicidal rating ([16]; rate 0.016 kg/ha): 4.0 | CHEAL herbicidal rating ([16]; rate 0.032 kg/ha): 9.0 | CHEAL herbicidal rating ([16]; rate 0.062 kg/ha): 9.0 | CHEAL herbicidal rating ([16]; rate 0.125 kg/ha): 9.0 | ECHCG herbicidal rating (ECHOG Barnyardgrass [17]; rate 0.016 kg/ha): 0.0 | ECHCG herbicidal rating (ECHOG Barnyardgrass [17]; rate 0.032 kg/ha): 0.0 | ECHCG herbicidal rating (ECHOG Barnyardgrass [17]; rate 0.062 kg/ha): 0.0 | ECHCG herbicidal rating (ECHOG Barnyardgrass [17]; rate 0.125 kg/ha): 4.0 | GALAP herbicidal rating (GALAP Galium [18]; rate 0.016 kg/ha): 0.0 | GALAP herbicidal rating (GALAP Galium [18]; rate 0.032 kg/ha): 0.0 | GALAP herbicidal rating (GALAP Galium [18]; rate 0.062 kg/ha): 0.0 | GALAP herbicidal rating (GALAP Galium [18]; rate 0.125 kg/ha): 0.0 | IPOHE herbicidal rating ([19]; rate 0.016 kg/ha): 0.0 | IPOHE herbicidal rating ([19]; rate 0.032 kg/ha): 0.0 | IPOHE herbicidal rating ([19]; rate 0.062 kg/ha): 0.0 | IPOHE herbicidal rating ([19]; rate 0.125 kg/ha): 9.0 | SETVI herbicidal rating (SETVI Foxtail, Green [20]; rate 0.016 kg/ha): 0.0 | SETVI herbicidal rating (SETVI Foxtail, Green [20]; rate 0.032 kg/ha): 0.0 | SETVI herbicidal rating (SETVI Foxtail, Green [20]; rate 0.062 kg/ha): 0.0 | SETVI herbicidal rating (SETVI Foxtail, Green [20]; rate 0.125 kg/ha): 9.0 | GLXMAW herbicidal rating (GLXMAW Soybean, Williams [21]; rate 0.016 kg/ha): 0.0 | GLXMAW herbicidal rating (GLXMAW Soybean, Williams [21]; rate 0.032 kg/ha): 0.0 | GLXMAW herbicidal rating (GLXMAW Soybean, Williams [21]; rate 0.062 kg/ha): 2.0 | GLXMAW herbicidal rating (GLXMAW Soybean, Williams [21]; rate 0.125 kg/ha): 2.0 | TRZAWR herbicidal rating ([22]; rate 0.016 kg/ha): 0.0 | TRZAWR herbicidal rating ([22]; rate 0.032 kg/ha): 0.0 | TRZAWR herbicidal rating ([22]; rate 0.062 kg/ha): 0.0 | TRZAWR herbicidal rating ([22]; rate 0.125 kg/ha): 1.0 | ORYSAT herbicidal rating (ORYSAT Rice, Tebonnet [23]; rate 0.016 kg/ha): 0.0 | ORYSAT herbicidal rating (ORYSAT Rice, Tebonnet [23]; rate 0.032 kg/ha): 0.0 | ORYSAT herbicidal rating (ORYSAT Rice, Tebonnet [23]; rate 0.062 kg/ha): 3.0 | ORYSAT herbicidal rating (ORYSAT Rice, Tebonnet [23]; rate 0.125 kg/ha): 4.0 | ZEAMX herbicidal rating (ZEAMX Corn, Field [24]; rate 0.016 kg/ha): 0.0 | ZEAMX herbicidal rating (ZEAMX Corn, Field [24]; rate 0.032 kg/ha): 0.0 | ZEAMX herbicidal rating (ZEAMX Corn, Field [24]; rate 0.062 kg/ha): 0.0 | ZEAMX herbicidal rating (ZEAMX Corn, Field [24]; rate 0.125 kg/ha): 0.0
